Values quoted from earlier work in patent publication US20160106774A1, “LIQUID PHARMACEUTICAL COMPOSITION CONTAINING PIROXICAM AND HYALURONIC ACID FOR THE TREATMENT OF OSTEOARTHRITIS” (DONG-A ST CO., LTD, priority 2013, published 2016).

Tested on: carrageenan-induced animal podedema model
Conditions: coadministration of NSAID with sodium hyaluronate; piroxicam 4 mg/kg and sodium hyaluronate 4 mg/kg; foot pad

O=C(O)Cc1ccccc1Nc1c(Cl)cccc1Cl [diclofenac]
anti-inflammatory effect of coadministration with sodium hyaluronate: additive or synergistic effects

CC(C)Cc1ccc(C(C)C(=O)O)cc1 (stereo not shown) [ibuprofen]
anti-inflammatory effect of coadministration with sodium hyaluronate: additive or synergistic effects

COc1ccc2c(c1)c(CC(=O)O)c(C)n2C(=O)c1ccc(Cl)cc1 [indomethacin]
anti-inflammatory effect of coadministration with sodium hyaluronate: additive or synergistic effects

CN1C(C(=O)Nc2ccccn2)=C(O)c2ccccc2S1(=O)=O [piroxicam]
anti-inflammatory effect of coadministration with sodium hyaluronate: weak
